Source: US20200370080A1, “ENANTIONSELECTIVE ENZYMATIC SULFOXIDATION OF CHIRAL ARYLSULFIDES” (Bayer Aktiengesellschaft, priority 2017, published 2020)

B1: styrene monooxygenase subunits StyA and StyB: two-component styrene monooxygenase (SEQ ID NO 5 and 6) expressed in E. coli JM101 from the pStyAB_ADP1_lac vector (protein, listed as Acinetobacter baylyi)
chain 1: MRRIAIVGAGQSGLQLGLSLLDTGYDVTIVTNRTADQIRQGKVMSSQCMFHTALQTERDVGLNFWEEQCPAVEGIGFTLVSPETGKPAFSWSARLERYAQSVDQRVKMPYWIEEFERRGGKLIIQDVGIDELEQLTTEYELVLLAAGKGEVVKQFVRDDERSTFDKPQRALALTYVTGMKPMSPYSRVTFNVIPGVGEYFCFPALTVTGPCEIMVFEGIPGGPMDCWQDAKTPEQHLQMSKDILNTYLPWEAERCENIEITDAGGYLAGRFPPSVRKPILTLPSGRQVFGMADALVVNDPITGQGSNNAAKCSKIYFDAILAHDTQSFTPEWMQQTFERYWSYAEKVVAWTNSLLVPPQPQMIDVLAAASQNQAIASTIANNFDDPRNFSPWWFDAEQAQHFIESKSCQKVA
chain 2: MNINTSHELGLKPIDTENPREIRNLLGQFATGVTVITTRGRDGRKIGMTANSFSSLSLDPPLILWSLSKTAPSLPDFTEAEYFAIHMLAQEHHSLSGHFARGSEDKFASIAHRECERGLPLLEDVLATLVCKNINQYEGGDHLIFIGQIEHYQQRIGEPLVFHAGKYRIAAEHPELSA

Tests used:
[1] = system: styrene monooxygenase StyA/StyB from A. baylyi; experiment: in vitro sulfoxidation of arylsulfide substrates by purified StyA (oxygenase) with excess StyB (reductase), HPLC analysis; format: biochemical, Acinetobacter baylyi sp. ADP1; details: for ee %: enantiomeric excess of sulfoxide formed, abs. configuration S; for yield %): enzymatic conversion to sulfoxide, 2 mM substrate (1 mM in case of clouding), purified StyA with excess StyB
Procedure: In order to do so, the StyA unit from Acinetobacter sp. ADP1 was cloned into a pET-vector inducible with IPTG and expressed in E. coli BL21 pLysS grown in LB medium (10 g/l tryptone, 5 g/l yeast extract, 10 g/l or 20 g/l NaCl, 100 μg/ml ampicillin, 50 μg/ml Chloramphenicol). For the expression a 5 ml overnight culture was used as inoculum for a fermenter with […] or a flask with 500 ml medium. The cells were cultured at 37° C. until the culture reached an optical density of 0.6 which was the threshold for induction of recombinant gene expression using IPTG (0.1 mM). The culture was performed for another 18 h at 20° C. […] The cells were harvested and the cellular walls were disrupted using a French press. […] The target protein was purified for the subsequent characterization.
The StyB unit from Acinetobacter baylyi sp. ADP1 was expressed in a similar fashion.
In order to test the activity the StyB unit (reductase) was employed in excess to supply the StyA unit (oxygenase) with sufficient reduced FAD. Therefore, NADH was produced by a format-dehydrogenase from format and NAD in the respective enzymatic reaction.
The enzyme conversion rate was probed every minute for 15 min for the kinetic analysis. If possible, i.e. soluble, 2 mM substrate were employed. In case of clouding 1 mM substrate was employed. The substrate was dissolved in ethanol. Reactions in the probes were stopped with a 1:1 mixture of ice-cold methanol and acetonitrile and afterwards analyzed using HPLC.
The educt and the product were analyzed on an Agilent 1100 HPLC device.

[2] = system: E. coli cells; experiment: toxicity of educt and product: growth of the production strain at different concentrations; format: cell-based
Procedure: A person skilled in the art knows how to determine the maximum rate at which the enzyme can process the substrate and thus how much substrate can be added to a given reaction continuously or in a given time interval. To understand the toxicity of educt and product the growth rate of the production strain is determined in presence of different educt and product concentration.

[3] = resting cell activity of whole-cell biocatalyst (E. coli JM101 pStyAB_ADP1_lac); format: cell-based; details: E. coli JM101, M9 minimal medium, 4.8 h after induction with 1 mM IPTG
Procedure: In detail, the styrene monooxygenase subunits StyA and StyB were expressed in E. coli JM101 cultivated in M9 minimal medium from the pStyAB_ADP1_lac vector. To find the maximum specific activity samples were taken after previously defined time points after addition of the inducer (1 mM IPTG). Cells were retrieved from the actively growing culture and used for the determination of the resting cell activity. As shown in FIG. 3 the specific activity increased steadily from the time point of induction and reached a maximum of 450±30 U/gcdw 4.8 h after induction.
In detail, the specific activity was quantified as follows: StyA and StyB were expressed in E. coli JM101 carrying the pStyAB_ADP1_lac vector. Cells were cultivated in M9 minimal medium and induced at an OD of 0.6-0.8. […]
Successful separation of the product i.e. the S-enantiomer of 2-chloro-4-(methylsulfinylmethyl)pyridine was achieved on a Dionex UltiMate 3000 HPLC system (Thermo Scientific) equipped with a non-polar HPLC column with C18 matrix (Accucore C18, 3×150 mm, 2.6 μm particle size, Thermo Scientific). […] The organic compounds were detected by absorption using diode array detector (DAD) at a wavelength of 210 nm. […]

Molecule	ee % [1] [%]	yield %) [1] [%]	other results
CSc1ccc(C)cc1 [p(CH3)—Ph—S—CH3, 4-methylphenyl methyl sulfide]	97.6	42	
C[S@+]([O-])Cc1ccnc(Cl)c1 [2-Chloro-4-((methyl-S-sulfinyl)methyl)pyridine]			toxicity of the product compared with the substrate ([2]; E. coli cells): significantly lower
C=CSc1ccccc1 [Ph—S—CH═CH2, phenyl vinyl sulfide]	99.7	40	
CSc1ccc(Cl)cc1 [p(Cl)—Ph—S—CH3, 4-chlorophenyl methyl sulfide]	95.5	34	
CSc1ccccc1 [Ph—S—CH3, phenyl methyl sulfide]	99.3	48	
CSCc1ccnc(Cl)c1 [2-chloro-4-(methylsulfanylmethyl)pyridine]			substrate concentration that entirely inhibited the growth of the cells ([2]; E. coli cells expressing StyA and StyB): above 10 mM
CSc1ccc(Br)cc1 [p(Br)—Ph—S—CH3, 4-bromophenyl methyl sulfide]	98.1	58	
CSc1ccc(F)cc1 [p(F)—Ph—S—CH3, 4-fluorophenyl methyl sulfide]	99.0	55	
B1			maximum specific activity [3]: 450±30 U/gcdw
